Reference: article PMC11357256, “Selectivity Screening and Structure–Cytotoxic Activity Observations of Selected Oleanolic Acid (OA)-Type Saponins from the Amaranthaceae Family on a Wiade Panel of Human Cancer Cell Lines” (Molecules, 2024)

Assays:
Du-145 = test: MTT cell viability assay, Du-145 prostate carcinoma cells; format: cell-based; conditions: Homo sapiens
Excerpt: (§1) Cell lines used in the study were grouped as follows: skin panel (melanomas: HTB140, derived from metastatic site: lymph node, ATCC Hs 294 T; malignant A375, ATCC CRL-1619; stage I primary WM793, RRID:CVCL 8787; skin keratinocytes HaCaT); prostate panel (prostate carcinomas: Du145, derived from metastatic site: brain, ATCC HTB-81; grade IV PC3, derived from metastatic site: bone, ATCC CRL-1435, LNCaP, derived from the metastatic site: lymph node, ATCC CRL-1740; prostate epithelial, PNT2, ECACC 95012613); gastrointestinal panel (colorectal adenocarcinomas: Caco2, ATCC HTB-37, HT29, ATCC HTB-38, DLD-1, ATCC CCL-221, HCT116, ATCC CCL-247, and colon epithelial cells CCD 841 CoN, ATCC CRL-1790; hepatocellular carcinoma HepG2, ATCC HB-8065); thyroid panel (follicular thyroid carcinoma FTC133, ECACC 9406090, undifferentiated thyroid carcinoma 8505C, ECACC 94090184, papillary thyroid carcinoma TPC-1, SCC147, normal thyroid follicular epithelial Nthy-ori 3–1, ECACC 90011609); and breast panel (ER-positive breast adenocarcinoma MCF7, ATCC HTB-22; ER-negative breast adenocarcinoma MDA-MB-231, ATCC HTB-26; breast epithelial MCF10A, ATCC CRL-10317). Cells were grown under standard conditions (37 °C, 5% CO2, relative humidity), and culture media (DMEM/F12 for PNT2, WM 793, HT29, PC3, FTC133, 8505 C, MDA-MB-231, TPC-1; DMEM Low Glucose for DU145; DMEM High Glucose for HTB140, A375, HaCaT; MEM with NEAA for Caco2 and MCF7; RPMI1640 with sodium pyruvate for LNCaP; DMEM/F12 with 20 ng/mL epidermal growth factor (EGF), 10 μg/mL insulin, 0.5 μg/mL hydrocortisone, 100 ng/mL cholera toxin) for MCF10A) supplemented with 10% fetal bovine serum (FBS) or 5% donor horse serum for MCF10A, and 1% antibiotics solution (10,000 U penicillin and 10 mg streptomycin/mL) […], as previously described. All cell lines, culture media, and supplements were from Sigma-Aldrich (Germany).
(§2) The cells were seeded in 96-well plates (1.5 × 10^4 cells/well). After 24 h, fresh medium was added, containing the tested compounds (0.5–100 μg/mL) and incubated for 24 or 48 h. Cell viability was determined by MTT assay, according to the manufacturer’s instructions, as described previously. Each experiment was performed in triplicate. The absorbance was measured at 570 nm using a Biotek Synergy microplate reader (BioTek Instruments Inc., Winooski, VT, USA). Cell viability was expressed as a percent of control (untreated cells). Doxorubicin was used as a reference drug.

PC3 = test: MTT cell viability assay, PC3 prostate carcinoma cells; format: cell-based; conditions: Homo sapiens, PC-3
Excerpt: as §1, §2

LNCaP = test: MTT cell viability assay, LNCaP prostate adenocarcinoma cells; format: cell-based; conditions: Homo sapiens
Excerpt: as §1, §2

PNT2 = test: MTT cell viability assay, PNT2 normal prostate epithelial cells; format: cell-based; conditions: Homo sapiens
Excerpt: as §1, §2

MDA-MB-231 = test: MTT cell viability assay, MDA-MB-231 breast adenocarcinoma cells; format: cell-based; conditions: Homo sapiens
Excerpt: as §1, §2

MCF7 = test: MTT cell viability assay, MCF7 breast adenocarcinoma cells; format: cell-based; conditions: Homo sapiens
Excerpt: as §1, §2

MCF10A = test: MTT cell viability assay, MCF10A normal breast epithelial cells; format: cell-based; conditions: Homo sapiens, MCF-10A
Excerpt: as §1, §2

FTC133 = test: MTT cell viability assay, FTC133 follicular thyroid carcinoma cells; format: cell-based, human; conditions: for IC50: Homo sapiens, FTC-133
Excerpt: as §1, §2
(§3) The selectivity index (SI) was calculated from the following formula:SI = IC50 of compound in a normal cell line/IC50 of compound in cancer cell line.IC50, half maximal inhibitory concentration, is a concentration required to kill 50% of the cells.

8505C = test: MTT cell viability assay, 8505C undifferentiated thyroid carcinoma cells; format: cell-based, human; conditions: for IC50: Homo sapiens, 8505C; for Selectivity Index (SI): IC50 Nthy-ori 3-1 / IC50 8505C
Excerpt: as §1, §2, §3

TPC-1 = test: MTT cell viability assay, TPC-1 papillary thyroid carcinoma cells; format: cell-based, human; conditions: for IC50: Homo sapiens, TPC1
Excerpt: as §1, §2, §3

Nthy-ori 3-1 = test: MTT cell viability assay, Nthy-ori 3-1 normal thyroid epithelial cells; format: cell-based; conditions: Homo sapiens
Excerpt: as §1, §2

Caco-2 = test: MTT cell viability assay, Caco-2 colon cancer cells; format: cell-based; conditions: Homo sapiens
Excerpt: as §1, §2

HT29 = test: MTT cell viability assay, HT29 colorectal adenocarcinoma cells; format: cell-based; conditions: Homo sapiens, HT-29
Excerpt: as §1, §2

HepG2 = test: MTT cell viability assay, HepG2 hepatocellular carcinoma cells; format: cell-based; conditions: Homo sapiens
Excerpt: as §1, §2

DLD-1 = test: MTT cell viability assay, DLD-1 colon cancer cells; format: cell-based; conditions: Homo sapiens
Excerpt: as §1, §2

HCT116 = test: MTT cell viability assay, HCT116 colon cancer cells; format: cell-based; conditions: Homo sapiens, HCT-116
Excerpt: as §1, §2

CCD 841 CoN = test: MTT cell viability assay, CCD 841 CoN normal colon epithelial cells; format: cell-based; conditions: Homo sapiens
Excerpt: as §1, §2

HTB-140 = test: MTT cell viability assay, HTB-140 metastatic melanoma cells; format: cell-based, human; conditions: for IC50: Homo sapiens; for Selectivity Index (SI): IC50 HaCaT / IC50 HTB-140, 24 h
Excerpt: as §1, §2, §3

A375 = test: MTT cell viability assay, A375 malignant melanoma cells; format: cell-based, human; conditions: for IC50: Homo sapiens, A-375; for Selectivity Index (SI): IC50 HaCaT / IC50 A375, 24 h
Excerpt: as §1, §2, §3

WM793 = test: MTT cell viability assay, WM793 primary melanoma cells; format: cell-based, human; conditions: for IC50: Homo sapiens
Excerpt: as §1, §2, §3

HaCaT = test: MTT cell viability assay, HaCaT keratinocytes; format: cell-based; conditions: Homo sapiens
Excerpt: as §1, §2

[1] = IC50 Nthy-ori 3-1 / IC50 FTC133, 24 h
[2] = IC50 Nthy-ori 3-1 / IC50 TPC-1, 24 h

CC1(C)CCC2(C(=O)O)CCC3(C)C(=CCC4C5(C)CCC(OC6OC(C(=O)O)C(O)C(OC7OCC(O)C(O)C7O)C6O)C(C)(C)C5CCC43C)C2C1 [MIc, oleanolic acid-3-O-[β-D-xylopyranosyl(1→3)-β-D-glucuronopyranoside]]
IC50 (Du-145; DU-145, 24 h): 5.4 µg/mL | IC50 (Du-145; DU-145, 48 h): 2.8 µg/mL | IC50 (PC3; PC3, 24 h): 5.5 µg/mL | IC50 (PC3; PC3, 48 h): 3.4 µg/mL | IC50 (LNCaP; 24 h): > 100 µg/mL | IC50 (LNCaP; 48 h): > 100 µg/mL | IC50 (PNT2; 24 h): > 100 µg/mL | IC50 (PNT2; 48 h): > 100 µg/mL | IC50 (MDA-MB-231; MDA-MB-231, 24 h): 52.2 µg/mL | IC50 (MDA-MB-231; MDA-MB-231, 48 h): 16.4 µg/mL | IC50 (MCF7; MCF7, 24 h): > 100 µg/mL | IC50 (MCF7; MCF7, 48 h): 29.2 µg/mL | IC50 (MCF10A; 24 h): > 100 µg/mL | IC50 (MCF10A; 48 h): > 100 µg/mL | IC50 (FTC133; FTC133, 24 h): 3.5 µg/mL | IC50 (FTC133; FTC133, 48 h): 2.1 µg/mL | Selectivity Index (SI) (FTC133; [1]): 24.85 | Selectivity Index (SI) (FTC133; IC50 Nthy-ori 3-1 / IC50 FTC133, 48 h): 30.7 | IC50 (8505C; 24 h): 10.6 µg/mL | IC50 (8505C; 48 h): 5.2 µg/mL | Selectivity Index (SI) (8505C; 24 h): 8.2 | Selectivity Index (SI) (8505C; 48 h): 12.2 | IC50 (TPC-1; TPC-1, 24 h): 39 µg/mL | IC50 (TPC-1; TPC-1, 48 h): 39 µg/mL | Selectivity Index (SI) (TPC-1; [2]): 2.2 | Selectivity Index (SI) (TPC-1; IC50 Nthy-ori 3-1 / IC50 TPC-1, 48 h): 1.6 | IC50 (Nthy-ori 3-1; 24 h): 86.2 µg/mL | IC50 (Nthy-ori 3-1; 48 h): 64.4 µg/mL | IC50 (Caco-2; Caco-2, 24 h): 7 µg/mL | IC50 (Caco-2; Caco-2, 48 h): 4.3 µg/mL | IC50 (HT29; HT29, 24 h): 4.2 µg/mL | IC50 (HT29; HT29, 48 h): 2.9 µg/mL | IC50 (HepG2; HepG2, 24 h): 12.5 µg/mL | IC50 (HepG2; HepG2, 48 h): 9.5 µg/mL | IC50 (DLD-1; DLD-1, 24 h): 16 µg/mL | IC50 (DLD-1; DLD-1, 48 h): 8 µg/mL | IC50 (HCT116; HCT116, 24 h): 9.4 µg/mL | IC50 (HCT116; HCT116, 48 h): 8.3 µg/mL | IC50 (CCD 841 CoN; 24 h): > 100 µg/mL | IC50 (CCD 841 CoN; 48 h): > 100 µg/mL | IC50 (HTB-140; HTB-140, 24 h): 7.8 µg/mL | IC50 (HTB-140; HTB-140, 48 h): 3 µg/mL | Selectivity Index (SI) (HTB-140): 0.7 | IC50 (A375; A375, 24 h): 1.9 µg/mL | IC50 (A375; A375, 48 h): 0.9 µg/mL | Selectivity Index (SI) (A375): 2.7 | IC50 (WM793; WM793, 24 h): 2 µg/mL | IC50 (WM793; WM793, 48 h): 1 µg/mL | Selectivity Index (SI) (WM793; IC50 HaCaT / IC50 WM793, 24 h): 2.6 | Selectivity Index (SI) (WM793; IC50 HaCaT / IC50 WM793, 48 h): 2.7 | IC50 (HaCaT; 24 h): 5.3 µg/mL | IC50 (HaCaT; 48 h): 2.7 µg/mL

COc1cccc2c1C(=O)c1c(O)c3c(c(O)c1C2=O)C[C@@](O)(C(=O)CO)C[C@@H]3O[C@H]1C[C@H](N)[C@H](O)[C@H](C)O1 [DOX, Doxorubicin]
IC50 (Du-145; DU-145, 24 h): 3.2 µg/mL | IC50 (PC3; PC3, 24 h): > 50 µg/mL | IC50 (LNCaP; 24 h): 1.8 µg/mL | IC50 (PNT2; 24 h): 1.4 µg/mL | IC50 (FTC133; FTC133, 24 h): 4 µg/mL | Selectivity Index (SI) (FTC133; [1]): 6.76 | IC50 (8505C; 24 h): > 40 µg/mL | IC50 (TPC-1; TPC-1, 24 h): 3.9 µg/mL | Selectivity Index (SI) (TPC-1; [2]): 7.0 | IC50 (Nthy-ori 3-1; 24 h): 27.2 µg/mL | IC50 (Caco-2; Caco-2, 24 h): 3.4 µg/mL | IC50 (HT29; HT29, 24 h): 1.5 µg/mL | IC50 (HepG2; HepG2, 24 h): 1 µg/mL | IC50 (DLD-1; DLD-1, 24 h): 1.1 µg/mL | IC50 (HCT116; HCT116, 24 h): 4 µg/mL | IC50 (CCD 841 CoN; 24 h): 1.7 µg/mL | IC50 (HTB-140; HTB-140, 24 h): 5.7 µg/mL | Selectivity Index (SI) (HTB-140): 0.8 | IC50 (A375; A375, 24 h): 0.6 µg/mL | Selectivity Index (SI) (A375): 7.9 | IC50 (WM793; WM793, 24 h): > 40 µg/mL | IC50 (HaCaT; 24 h): 4.7 µg/mL
